In the NIST ThermoML archive (doi:10.1021/acs.jced.8b01193):
Numbers after ± are expanded uncertainties.

Key:
[1] = Crystal; DSC
[2] = Molar enthalpy of transition or fusion; settings: Crystal; DSC

Triple point temperature [1]: 425.95 ± 0.93 K
Molar enthalpy of transition or fusion [2]: 3.9 ± 0.12 kcal/mol
SMILES: O=C1CCCCCCCCCCCN1 [2-azacyclotridecanone]
